From publication PMC8213057, “Targeting ALK2: An Open Science Approach to Developing Therapeutics for the Treatment of Diffuse Intrinsic Pontine Glioma” (Journal of Medicinal Chemistry, 2020)

Experiments:
c-MER = molecular target: T1, c-MER (Homo sapiens, UniProt Q12866); details: 1 μM; Run 1, Run 2
T1 sequence (Q12866 21-999): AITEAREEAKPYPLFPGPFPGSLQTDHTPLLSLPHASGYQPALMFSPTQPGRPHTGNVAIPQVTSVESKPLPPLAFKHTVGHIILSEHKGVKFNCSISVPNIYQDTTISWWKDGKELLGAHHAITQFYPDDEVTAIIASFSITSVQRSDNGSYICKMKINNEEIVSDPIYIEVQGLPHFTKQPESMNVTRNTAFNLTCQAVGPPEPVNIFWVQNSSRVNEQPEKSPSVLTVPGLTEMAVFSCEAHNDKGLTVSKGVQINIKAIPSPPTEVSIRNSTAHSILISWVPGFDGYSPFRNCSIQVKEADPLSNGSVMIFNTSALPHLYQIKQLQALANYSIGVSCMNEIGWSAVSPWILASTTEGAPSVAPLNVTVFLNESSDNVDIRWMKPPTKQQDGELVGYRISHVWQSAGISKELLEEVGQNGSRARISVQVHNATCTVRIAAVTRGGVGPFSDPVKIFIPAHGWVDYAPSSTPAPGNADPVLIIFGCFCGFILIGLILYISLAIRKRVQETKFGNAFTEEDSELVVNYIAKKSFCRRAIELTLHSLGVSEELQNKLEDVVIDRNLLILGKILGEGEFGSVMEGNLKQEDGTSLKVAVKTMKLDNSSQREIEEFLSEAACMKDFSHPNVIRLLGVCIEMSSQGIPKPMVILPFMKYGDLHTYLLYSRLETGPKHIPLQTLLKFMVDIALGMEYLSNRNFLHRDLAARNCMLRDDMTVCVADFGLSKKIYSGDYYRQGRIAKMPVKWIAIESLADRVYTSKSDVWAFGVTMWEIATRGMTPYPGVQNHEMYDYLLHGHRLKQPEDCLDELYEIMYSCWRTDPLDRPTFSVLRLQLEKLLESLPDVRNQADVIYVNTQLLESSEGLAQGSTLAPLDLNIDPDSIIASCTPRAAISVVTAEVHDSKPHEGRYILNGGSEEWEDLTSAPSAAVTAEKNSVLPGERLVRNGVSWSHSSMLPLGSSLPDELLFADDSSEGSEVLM

MARK4 = molecular target: T2, MARK4 (Homo sapiens, UniProt Q96L34); details: 1 μM; Run 1, Run 2
T2 sequence (Q96L34 1-752): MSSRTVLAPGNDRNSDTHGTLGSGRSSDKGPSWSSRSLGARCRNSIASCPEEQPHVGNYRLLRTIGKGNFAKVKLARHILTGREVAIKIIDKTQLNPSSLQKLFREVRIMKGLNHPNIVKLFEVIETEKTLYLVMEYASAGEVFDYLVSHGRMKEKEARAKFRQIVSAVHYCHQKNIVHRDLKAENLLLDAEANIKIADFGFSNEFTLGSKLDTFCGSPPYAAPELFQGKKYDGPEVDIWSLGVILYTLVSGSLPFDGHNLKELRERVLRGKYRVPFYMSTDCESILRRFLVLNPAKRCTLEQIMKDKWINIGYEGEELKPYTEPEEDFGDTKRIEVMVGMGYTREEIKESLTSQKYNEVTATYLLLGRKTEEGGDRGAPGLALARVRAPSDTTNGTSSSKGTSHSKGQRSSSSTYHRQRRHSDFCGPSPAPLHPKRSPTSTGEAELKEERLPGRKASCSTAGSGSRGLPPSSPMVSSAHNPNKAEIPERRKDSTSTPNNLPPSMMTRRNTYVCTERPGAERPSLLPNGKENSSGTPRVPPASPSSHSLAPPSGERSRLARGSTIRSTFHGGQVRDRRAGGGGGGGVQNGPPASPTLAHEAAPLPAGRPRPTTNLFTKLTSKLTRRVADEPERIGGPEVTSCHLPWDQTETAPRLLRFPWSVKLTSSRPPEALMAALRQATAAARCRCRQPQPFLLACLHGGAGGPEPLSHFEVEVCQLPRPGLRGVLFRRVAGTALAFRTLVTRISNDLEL

LATS1 = molecular target: T3, LATS1 (Homo sapiens, UniProt O95835); assay: biochemical; details: read-out: % enzyme activity, 1 μM; Run 1, Run 2
T3 sequence (O95835 1-1130): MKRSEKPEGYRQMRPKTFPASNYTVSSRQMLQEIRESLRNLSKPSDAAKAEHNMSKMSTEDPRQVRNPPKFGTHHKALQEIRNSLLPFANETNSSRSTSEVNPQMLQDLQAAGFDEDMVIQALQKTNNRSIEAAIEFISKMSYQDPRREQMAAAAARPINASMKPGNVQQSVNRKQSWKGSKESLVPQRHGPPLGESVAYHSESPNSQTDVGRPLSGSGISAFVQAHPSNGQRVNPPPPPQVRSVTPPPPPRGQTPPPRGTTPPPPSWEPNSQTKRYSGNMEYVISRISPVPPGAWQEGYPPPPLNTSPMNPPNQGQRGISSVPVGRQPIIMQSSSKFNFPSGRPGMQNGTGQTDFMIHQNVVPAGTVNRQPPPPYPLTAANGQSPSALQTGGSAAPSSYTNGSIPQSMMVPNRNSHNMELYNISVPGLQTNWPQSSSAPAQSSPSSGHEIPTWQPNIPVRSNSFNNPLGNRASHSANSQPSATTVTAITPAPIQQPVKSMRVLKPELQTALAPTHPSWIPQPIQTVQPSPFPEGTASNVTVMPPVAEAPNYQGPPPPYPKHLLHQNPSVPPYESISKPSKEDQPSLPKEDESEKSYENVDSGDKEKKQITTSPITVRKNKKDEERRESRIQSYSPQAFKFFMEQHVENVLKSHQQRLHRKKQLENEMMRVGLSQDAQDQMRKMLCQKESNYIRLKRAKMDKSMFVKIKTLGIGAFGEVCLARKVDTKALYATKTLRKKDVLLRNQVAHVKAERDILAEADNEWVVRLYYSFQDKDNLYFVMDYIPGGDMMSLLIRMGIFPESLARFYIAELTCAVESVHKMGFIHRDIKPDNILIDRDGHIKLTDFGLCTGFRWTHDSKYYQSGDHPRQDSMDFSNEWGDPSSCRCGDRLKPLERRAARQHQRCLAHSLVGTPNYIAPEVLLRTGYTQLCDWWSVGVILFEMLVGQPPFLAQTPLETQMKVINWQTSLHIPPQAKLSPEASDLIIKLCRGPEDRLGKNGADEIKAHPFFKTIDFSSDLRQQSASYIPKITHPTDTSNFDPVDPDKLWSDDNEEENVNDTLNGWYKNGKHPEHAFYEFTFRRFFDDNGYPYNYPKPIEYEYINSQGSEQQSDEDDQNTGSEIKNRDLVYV

| SMILES | % enzyme activity (c-MER) [%] | % enzyme activity (MARK4) [%] | remaining activity at 1 µM (LATS1) [%] |
| --- | --- | --- | --- |
| COc1cc(-c2cncc(-c3ccc(N4CCN(C)CC4)cc3)c2C)cc(F)c1C(N)=O [Compound 26a, 2-Fluoro-6-methoxy-4-(4-methyl-5-(4-(4-methylpiperazin-1-yl)phenyl)pyridin-3-yl)benzamide] | 99.93 | 82.62 | 97.4 |
| COc1cc(-c2cncc(-c3ccc(N4C[C@@H](C)N(C)[C@@H](C)C4)cc3)c2C)cc(F)c1C(N)=O [Compound 26c, 2-Fluoro-6-methoxy-4-(4-methyl-5-(4-((3R,5S)-3,4,5-trimethylpiperazin-1-yl)phenyl)pyridin-3-yl)benzamide] | 96.34 | 95.76 | 102 |
